In ChEMBL document CHEMBL5380831, “Azolylpyrimidinediols as Novel Structural Scaffolds of DNA-Groove Binders against Intractable Acinetobacter baumannii” (J Med Chem, 2023):
≈ marks a conversion by molar mass, not a printed value. Calls of active or inactive are those of the source. No cut-off for these calls is given here.

Legend:
[1] = system: Klebsiella pneumoniae; assay: Antibacterial activity against Klebsiella pneumoniae assessed as bacterial growth inhibition incubated for 24 hrs by broth microdilution method; format: functional
[2] = Clearance in Kunming mouse at 10 mg/kg, iv measured upto 24 hrs by LC-MS analysis; format: ADME, organism-based; conditions: in vivo
[3] = system: Cell membrane; assay: Induction of outer membrane damage in Acinetobacter baumannii at 1 to 8 times MIC incubated for 30 mins by fluorescence based assay
[4] = system: Calf thymus DNA; assay: Induction of calf thymus DNA cleavage at 0.05 mmol/L incubated for 6 hrs in presence of Cu2+ by agarose gel electrophoresis method; format: nucleic-acid assay; conditions: Bos taurus
[5] = system: Escherichia coli; assay: Antibacterial activity against Escherichia coli assessed as bacterial growth inhibition incubated for 24 hrs by broth microdilution method; format: functional
[6] = system: Calf thymus DNA; assay: Binding affinity to calf thymus DNA incubated overnight in presence of sodium chloride by sodium ion-quenching assay; format: nucleic-acid assay; conditions: Bos taurus
[7] = AUC (0 to t) in Kunming mouse at 10 mg/kg, iv measured upto 24 hrs by LC-MS analysis; format: ADME, organism-based; set-up: time < 24 hrs, dose 10 mg/kg, route iv; conditions: in vivo
[8] = system: Calf thymus DNA; assay: Binding affinity to calf thymus DNA assessed as compound-DNA complex formation by absorbance based assay; format: nucleic-acid assay; conditions: Bos taurus
[9] = system: Acinetobacter baumannii; assay: Antibacterial activity against Acinetobacter baumannii infected in mouse assessed as log reduction in viable bacterial count at 30 mg/kg measured for 12 hrs; format: functional
[10] = system: Calf thymus DNA; assay: Induction of calf thymus DNA cleavage at 0.05 mmol/L incubated for 6 hrs in presence of Zn2+ by agarose gel electrophoresis method; format: nucleic-acid assay; conditions: Bos taurus
[11] = system: Staphylococcus aureus; assay: Antibacterial activity against Staphylococcus aureus assessed as bacterial growth inhibition incubated for 24 hrs by broth microdilution method; format: functional
[12] = system: Calf thymus DNA; assay: Induction of calf thymus DNA cleavage at 0.05 mmol/L incubated for 6 hrs in presence of Zn(NO3)2 by agarose gel electrophoresis method; format: nucleic-acid assay; conditions: Bos taurus
[13] = system: Calf thymus DNA; assay: Binding affinity to calf thymus DNA assessed as binding constant, K by absorbance based assay; format: nucleic-acid assay; conditions: Bos taurus
[14] = AUMC (0 to t) in Kunming mouse at 10 mg/kg, po measured upto 24 hrs by LC-MS analysis; format: ADME, organism-based; conditions: in vivo

In the case of `OCCN(CCO)c1nccc(-n2cncn2)n1`, the MIC [1] is reported as 8 µM (≈ 2 µg/mL), the CL [2] is reported as 8.43 mL/min/kg and the Activity [3] is reported as “inactive”. The Activity [4] was “inactive”, the MIC [5] was 1020 µM (≈ 256 µg/mL) and the Activity [6] was “Active”. For the same compound, the AUC(0-t) at 24 h [7] was 2080 ng·h/mL, the Activity [8] was “Active” and the “log(activity)” value [9] was 3.5. The Activity [10] was “inactive”, the MIC [11] was 512 µM (≈ 128 µg/mL) and the Activity [12] was “inactive”. The K [13] was 1.7 10^3L/mol and the AUMCt [14] was 31290 hr.hr.ng/ml.
